Experimental findings from DBAASP are described below.

SMILES strings stand for the structures. ≈ marks a conversion by molar mass, not a printed value. Where “and” joins values, the source holds several entries; their conditions need not be identical. Identical values can stand only once. Bounds are passed on as bounds.

Among the test systems are Microsporum canis IP1194; Escherichia coli IP76-24; Candida krusei; Cryptococcus neoformans; Escherichia coli JM109; Cupriavidus necator H16; Aspergillus fumigatus; Escherichia coli D22; Micrococcus luteus A270.
Common to all, as to assay: ≥ marks a high value that may be exact or a test limit, other limits are often not marked, values filed in µg/mL are converted to µM
Experiment [1] concerns Pseudomonas aeruginosa ATCC 27853.
Experiment [2] has as its system Mycobacterium tuberculosis.
For experiment [3], the system named is Mycobacterium tuberculosis CAS3.
For experiment [4], the system named is Klebsiella pneumoniae ST258.
Experiment [5] concerns Mycobacterium tuberculosis FYX.
The test system of experiment [6] is Mycobacterium tuberculosis WXY.
For experiment [7], the system named is Escherichia coli ATCC 25922.
Experiment [8] concerns Mycobacterium tuberculosis H37Rv.
Experiment [9] relates to Trichophyton rubrum IP2043-92.
Experiment [10] relates to Enterococcus faecalis IP103214.
Experiment [11] has as its system Trichophyton simii IP1063-74.
In experiment [12] the test system is Cryptococcus neoformans IP962-67.
In experiment [13] the test system is Nocardia brasiliensis IP16-80.
Experiment [14] deals with Trichophyton simii J43 IP903-65.
Experiment [15] concerns Saccharomyces cerevisiae IP118079.
In experiment [16] the test system is Aspergillus fumigatus IP1025-70.
Experiment [17] has as its system Aspergillus niger IP218-53.
Experiment [18] has as its system Trichophyton mentagrophytes IP877-71.
The test system of experiment [19] is Staphylococcus aureus IP76-25.
For experiment [20], the system named is Candida albicans IP884-65.
Experiment [21] has as its system Candida albicans IP886-65.
Experiment [22] relates to Cryptococcus neoformans IP960-67.
The subject of experiment [23] is Aeromonas caviae IP67-16T.
Experiment [24] relates to Staphylococcus aureus ATCC 6538.
The test system of experiment [25] is Aggregatibacter actinomycetemcomitans ATCC 29522.
Experiment [26] relates to Cryptococcus neoformans ATCC 24067.
Experiment [27] concerns Streptococcus sanguinis ATCC 10556.
For experiment [28], the system named is Staphylococcus epidermidis ATCC 12228.
Experiment [29] relates to Candida krusei ATCC 20029.
Experiment [30] relates to Cryptococcus gattii ATCC 32608.
The test system of experiment [31] is Escherichia coli ATCC 10536.
Experiment [32] concerns Acinetobacter baumannii ATCC 19606.
In experiment [33] the test system is Escherichia coli BL21(DE3).
Experiment [34] deals with Pseudomonas putida GPp104.
Experiment [35] relates to Neurospora crassa CBS 327-54.

As to `CC(C)C[C@H](NC(=O)[C@H](CCCCN)NC(=O)[C@H](CCCCN)NC(=O)[C@H](CO)NC(=O)[C@H](Cc1ccccc1)NC(=O)[C@H](CCCCN)NC(=O)[C@H](CCCCN)NC(=O)[C@H](CC(C)C)NC(=O)CNC(=O)[C@H](CCCCN)NC(=O)[C@H](CC(C)C)NC(=O)CNC(=O)[C@H](Cc1c[nH]c2ccccc12)NC(=O)[C@@H](N)Cc1ccccc1)C(=O)O` [FWGLKGLKKFSKKL], the MIC in experiment [1] is more than 29.8 µM; in experiment [2], 5.95 µM (≈ 10 µg/mL); in experiment [3], 11.2 µM (≈ 18.8 µg/mL); in experiment [4], 29.8 µM (≈ 50 µg/mL); in [5], 11.2 µM (≈ 18.8 µg/mL); in experiment [6], 22.3 µM (≈ 37.5 µg/mL). In addition, the MIC in experiment [7] is 25 µM (≈ 42 µg/mL); in experiment [8], 11.9 µM and 11.2 µM.
With `CC[C@H](C)[C@H](NC(=O)[C@H](CCCCN)NC(=O)[C@H](CO)NC(=O)[C@H](Cc1c[nH]c2ccccc12)NC(=O)[C@H](CC(C)C)NC(=O)CN)C(=O)N[C@@H](CCCCN)C(=O)N[C@H](C(=O)N[C@@H](C)C(=O)NCC(=O)N[C@@H](CCCCN)C(=O)N[C@@H](CO)C(=O)N[C@H](C(=O)N[C@@H](C)C(=O)N[C@@H](CCCCN)C(=O)N[C@@H](C)C(=O)N[C@@H](C)C(=O)N[C@@H](C)C(=O)N[C@@H](CCCCN)C(=O)N[C@@H](C)C(=O)N[C@@H](C)C(=O)N[C@H](C(=O)N[C@@H](CCCCN)C(=O)N[C@@H](C)C(=O)N[C@H](C(=O)N[C@H](C(=O)N[C@@H](CC(N)=O)C(=O)N[C@@H](C)C(=O)N[C@H](C(=O)O)C(C)C)[C@@H](C)O)C(C)C)C(C)C)C(C)C)[C@@H](C)O` [GLWSKIKTAGKSVAKAAAKAAVKAVTNAV], the MIC in experiment [9] was 20 µM (≈ 56.8 µg/mL); in experiment [10] it was not below 40 µM; in experiment [11] it was 30 µM (≈ 85.2 µg/mL); in [12], 1 µM (≈ 2.84 µg/mL); in [13], not below 40 µM; in [14], 20 µM (≈ 56.8 µg/mL). For the same compound, the MIC is 5 µM (≈ 14.2 µg/mL) in [15]; not below 70 µM in [16]; 15 µM (≈ 42.6 µg/mL) against Microsporum canis IP1194; 30 µM (≈ 85.2 µg/mL) in [17]; 20 µM (≈ 56.8 µg/mL) in experiment [18]; 2 µM (≈ 5.68 µg/mL) in [19]. Besides, the MIC in experiment [20] is 10 µM (≈ 28.4 µg/mL); in [21] it was 10 µM (≈ 28.4 µg/mL); against Escherichia coli IP76-24, not below 35 µM; in experiment [22], 1 µM (≈ 2.84 µg/mL); in experiment [23] it was not below 35 µM.
Consider `CC[C@H](C)[C@H](N)C(=O)N[C@@H](Cc1c[nH]c2ccccc12)C(=O)N[C@@H](CC(C)C)C(=O)N[C@H](C(=O)N[C@@H](C)C(=O)N[C@@H](CC(C)C)C(=O)N[C@@H](CCCCN)C(=O)N[C@@H](Cc1ccccc1)C(=O)N[C@@H](CC(C)C)C(=O)NCC(=O)N[C@@H](CCCCN)C(=O)N[C@@H](CC(N)=O)C(=O)N[C@@H](CC(C)C)C(=O)NCC(=O)N[C@@H](CCCCN)C(=O)N[C@@H](Cc1cnc[nH]1)C(=O)N[C@@H](CC(C)C)C(=O)N[C@@H](C)C(=O)N[C@@H](CCCCN)C(=O)N[C@@H](CCC(N)=O)C(=O)N[C@@H](CCC(N)=O)C(=O)N[C@@H](CC(C)C)C(=O)N[C@@H](C)C(=O)N[C@@H](CCCCN)C(=O)N[C@@H](CC(C)C)C(N)=O)[C@@H](C)O` [IWLTALKFLGKNLGKHLAKQQLAKL], for which the MIC in experiment [1] was 2.82 µM (≈ 7.99 µg/mL); in experiment [24] it was 5.52 µM (≈ 15.6 µg/mL); in experiment [25] it was 10.6 µM (≈ 30 µg/mL); in [26] it was 7.11 µM (≈ 20.1 µg/mL); in experiment [27], 10.9 µM (≈ 30.9 µg/mL); in [28] it was 0.7 µM (≈ 1.98 µg/mL). The MIC in the experiment on Candida krusei was determined as 26.3 µM (≈ 74.5 µg/mL); in experiment [29], 14.2 µM (≈ 40.3 µg/mL); in [30] it was 2.23 µM (≈ 6.32 µg/mL); in experiment [31], 5.52 µM (≈ 15.6 µg/mL); with Cryptococcus neoformans, 13.2 µM (≈ 37.4 µg/mL); in experiment [32], 0.7 µM (≈ 1.98 µg/mL).
As for `CC[C@H](C)[C@H](NC(=O)[C@H](Cc1ccc(O)cc1)NC(=O)[C@@H](NC(=O)[C@@H]1CCCN1C(=O)[C@H](CCCN=C(N)N)NC(=O)[C@@H](NC(=O)[C@@H]1CCCN1C(=O)[C@@H](N)CCCN=C(N)N)C(C)C)C(C)C)C(=O)N1CCC[C@H]1C(=O)N[C@@H](CCC(N)=O)C(=O)N1CCC[C@H]1C(=O)N[C@@H](CCCN=C(N)N)C(=O)N1CCC[C@H]1C(=O)N1CCC[C@H]1C(=O)N[C@@H](Cc1cnc[nH]1)C(=O)N1CCC[C@H]1C(=O)N[C@@H](CCCN=C(N)N)C(=O)N[C@@H](CC(C)C)C(=O)O` [RPVRPVYIPQPRPPHPRL], the MIC was found to be 0.313 µM (≈ 0.681 µg/mL) in experiment [33], 6.25 µM (≈ 13.6 µg/mL) in experiment [34], 6.25 µM (≈ 13.6 µg/mL) with Escherichia coli JM109 and 10 µM (≈ 21.8 µg/mL) with Cupriavidus necator H16.
`CSCC[C@H](NC(=O)[C@H](CO)NC(=O)[C@@H](N)CO)C(=O)N[C@@H](CCCCN)C(=O)N[C@@H](CC(C)C)C(=O)N[C@@H](CO)C(=O)N[C@@H](Cc1ccccc1)C(=O)N[C@@H](CCCN=C(N)N)C(=O)N[C@@H](C)C(=O)N[C@@H](CCCN=C(N)N)C(=O)N[C@@H](C)C(=O)N[C@@H](Cc1ccc(O)cc1)C(=O)NCC(=O)N[C@@H](Cc1ccccc1)C(=O)N[C@@H](CCCN=C(N)N)C(=O)NCC(=O)N1CCC[C@H]1C(=O)NCC(=O)N[C@@H](CC(C)C)C(=O)N[C@@H](CCC(N)=O)C(=O)N[C@@H](CC(C)C)C(=O)O` [SSMKLSFRARAYGFRGPGLQL]: the MIC against Aspergillus fumigatus was not below 100 µM; against Escherichia coli D22 it was not below 100 µM; with Micrococcus luteus A270, 10 µM (≈ 23.4 µg/mL); in experiment [35], 10 µM (≈ 23.4 µg/mL).
